# Assays:
# Assay type in all cases: cell-based
# VERO cells (ATCC CCL-81) = assay: Cytotoxicity of hit drugs, MTT, 24 h; settings: African green monkey
# Method: VERO cells (ATCC® CCL-81, a kidney tissue derived from a normal adult African green monkey) were cultured in 199 medium with Earle’s salts supplemented with 100 U/mL of penicillin–100 µg/mL of streptomycin (Cultilab LTDA, São Paulo, Brazil) and 10% fetal bovine serum (FBS, Cultilab LTDA, Brazil) in an incubator at 37 °C with 5% CO2. Cells were subcultured in 25 or 75 cm^2 culture flasks once a week and the culture medium was also changed once a week. The cells used in the experiments were from passages 10 to 29 [42]. Cytotoxicity assays to assess cell viability were performed in 96-well plates with 5 × 10^4 cells/well that were exposed to hit drug solutions for 24 h at 37 °C in an incubator with 5% CO2. […]. A solution of 10% Tween 80 solution was used as the positive cellular death control. Wells with VERO cells receiving only the culture medium with or without 1% DMSO were also included as positive cellular growth controls.
# The 3-(4,5-dimethylthiazol-2-yl)-2,5-diphenyltetrazolium bromide (MTT, Sigma-Aldrich®, USA) reagent dissolved in PBS, pH 7.4, was used to check cell viability. Results were read at 492 nm on a Thermo Scientific® Multiskan microplate spectrophotometer reader and expressed as percent cell viability in the culture medium after addition of a 10% Tween 80 solution.
# [1] = tested on: Cladophialophora carrionii (CFP 00910); assay: Minimum fungicidal concentration determination; settings: C. carrionii
# Method: The MFC was determined as the lowest drug concentration without fungal growth on Sabouraud agar after five days of incubation at 35 °C.
# [2] = tested on: Exophiala heteromorpha (ATCC 28180); assay: Minimum fungicidal concentration determination; settings: E. heteromorpha
# Method: (§1) Minimum fungicidal concentration (MFC) was determined in triplicate by transferring a 5 μL aliquot from each well without fungal growth of the microdilution plates used for MIC determination, as described above, onto 2% glucose Sabouraud agar (Sigma Chemical Corporation). The MFC was determined as the lowest drug concentration without fungal growth on Sabouraud agar after five days of incubation at 35 °C. When the MFC/MIC ratio of a hit drug was 1 or 2, the substance was considered fungicidal against the pathogen. If this ratio was greater than 2, the hit drug was considered to be fungistatic.
# [3] = tested on: Rhinocladiela similis (CFP 00790); assay: Minimum fungicidal concentration determination; settings: R. similis
# Method: as §1
# [4] = tested on: Fonsecaea pedrosoi (CFP 00791); assay: Minimum fungicidal concentration determination; settings: F. pedrosoi
# Method: as §1
# [5] = tested on: Phialophora verrucosa (CFP 00937); assay: Minimum fungicidal concentration determination; settings: P. verrucosa
# Method: as §1
# [6] = tested on: Fonsecaea monophora (CFP 00911); assay: Minimum fungicidal concentration determination; settings: F. monophora
# Method: as §1
# [7] = tested on: Fonsecaea nubica (CFP 00912); assay: Minimum fungicidal concentration determination; settings: F. nubica
# Method: as §1
# [8] = tested on: Exophiala dermatitidis (ATCC 28869); assay: Minimum fungicidal concentration determination; settings: E. dermatitidis
# Method: as §1
# [9] = tested on: Fonsecaea pedrosoi (CFP 00791); assay: NIH Clinical Collection screening for antifungal activity (growth inhibition, OD 530 nm); settings: 10 µM; CFP00791 Fonsecaea pedrosoi isolate; 72–96 h; read-out: % Growth Inhibition
# Method: These substances are part of the NIH Roadmap Molecular Libraries Screening Centers Network screening library, a collection of chemically diverse substances in Phase I-III clinical trials. Each substance was initially diluted to 1 mM in DMSO and stored at −20 °C until use. […] The final DMSO concentration corresponded to 0.5% v/v. The inoculum was prepared according to the protocol for filamentous fungi proposed by the European Committee on Antimicrobial Susceptibility Testing—EUCAST, with minor modifications. […] After growth, conidia were suspended in 3 mL of sterile distilled water with 0.1% Tween 20, vortexed, and the concentration adjusted to the 0.5 McFarland scale. The suspension was then diluted 1:10 in order to obtain a final working inoculum at 2–5 × 10^5 CFU/mL. Next, 100 µL of the inoculum was added to each well and the plates incubated at 35 °C for 72–96 h. Negative and positive controls consisted of culture medium alone and drug-free culture medium with the fungal inoculum previously described, respectively. Plates were read using a microplate reader (Epoch, Biotek, Wenusky, VT, USA) with a 530 nm filter to obtain the optical density. All plates were also visually read to confirm the equipment data. A calculation was performed to obtain the percentage of inhibition of fungal growth, according to the formula: (1 − (OD1/OD2)) × 100, where OD1 = optical density of the fungus in the presence of the drug; and OD2 = optical density of the growth control drug-free well.
# [10] = tested on: Exophiala heteromorpha (ATCC 28180); assay: MIC determination (EUCAST, minor modifications); settings: E. heteromorpha
# Method: (§2) Minimum inhibitory concentrations (MICs) were determined using the method proposed by the European Committee on Antimicrobial Susceptibility Testing (EUCAST), with minor modifications. Hit drugs were serially diluted (80 μM to 0.15625 μM) in RPMI 1640 (twice concentrated, pH 7; supplemented with 2% glucose) buffered with MOPS in 96-well plates. The inoculums of all strains were prepared following the EUCAST protocol. Plates were incubated at 35 °C for 72–96 h. The MIC of the NCC substances was determined as the lowest concentration capable of inhibiting 100% of fungal growth when compared to the growth control well. MIC values were determined in duplicate.
# [11] = tested on: Rhinocladiela similis (CFP 00790); assay: MIC determination (EUCAST, minor modifications); settings: R. similis
# Method: as §2
# [12] = tested on: Fonsecaea pedrosoi (CFP 00791); assay: MIC determination (EUCAST, minor modifications); settings: F. pedrosoi
# Method: as §2
# [13] = tested on: Phialophora verrucosa (CFP 00937); assay: MIC determination (EUCAST, minor modifications); settings: P. verrucosa
# Method: as §2
# [14] = tested on: Cladophialophora carrionii (CFP 00910); assay: MIC determination (EUCAST, minor modifications); settings: C. carrionii
# Method: as §2
# [15] = tested on: Fonsecaea monophora (CFP 00911); assay: MIC determination (EUCAST, minor modifications); settings: F. monophora
# Method: as §2
# [16] = tested on: Fonsecaea nubica (CFP 00912); assay: MIC determination (EUCAST, minor modifications); settings: F. nubica
# Method: as §2
# [17] = tested on: Exophiala dermatitidis (ATCC 28869); assay: MIC determination (EUCAST, minor modifications); settings: E. dermatitidis
# Method: as §2
structure (smiles),measurement,setting,value
COC(=O)Nc1nc2ccc(C(=O)c3ccccc3)cc2[nH]1 [Mebendazole],CC50 (translated from >100 μg/mL),VERO cells (ATCC CCL-81),~338.98 µM
same,MFC:MIC Ratio,[1],1
same,fungicidal or fungistatic (MFC/MIC ratio),[1],"fungicidal (When the MFC/MIC ratio of a hit drug was 1 or 2, the substance was considered fungicidal)"
same,MFC,"[1]; Cladophialophora carrionii, read-out: MFC",2.5 µM
same,MFC:MIC Ratio,[2],>16
same,MFC,"[2]; Exophiala heteromorpha, ATCC28180, read-out: MFC",> 80 µM
same,MFC:MIC Ratio,[3],>16
same,MFC,[3]; read-out: MFC,> 80 µM
same,MFC:MIC Ratio,[4],1
same,fungicidal or fungistatic (MFC/MIC ratio),[4],"fungicidal (When the MFC/MIC ratio of a hit drug was 1 or 2, the substance was considered fungicidal)"
same,MFC,"[4]; Fonsecaea pedrosoi, read-out: MFC",5 µM
same,MFC:MIC Ratio,[5],2
same,fungicidal or fungistatic (MFC/MIC ratio),[5],"fungicidal (When the MFC/MIC ratio of a hit drug was 1 or 2, the substance was considered fungicidal)"
same,MFC,"[5]; Phialophora verrucosa, read-out: MFC",10 µM
same,MFC:MIC Ratio,[6],32
same,MFC,"[6]; Fonsecaea monophora, read-out: MFC",80 µM
same,MFC:MIC Ratio,[7],>16
same,MFC,"[7]; Fonsecaea nubica, read-out: MFC",> 80 µM
same,MFC:MIC Ratio,[8],>4
same,MFC,"[8]; Exophiala dermatitidis, ATCC28869, read-out: MFC",> 80 µM
same,inhibition at 10 µM,[9],83%
same,Selectivity Index (SI),[10]; CC50 Vero 24 h / MIC,67.79
same,MIC,"[10]; Exophiala heteromorpha, ATCC28180, 100% growth inhibition, read-out: MIC",5 µM
same,MIC,"[11]; 100% growth inhibition, read-out: MIC",5 µM
same,Selectivity Index (SI),[11]; CC50 Vero 24 h / MIC,67.79
same,Selectivity Index (SI),[12]; CC50 Vero 24 h / MIC,67.79
same,MIC,"[12]; Fonsecaea pedrosoi, 100% growth inhibition, read-out: MIC",5 µM
same,Selectivity Index (SI),[13]; CC50 Vero 24 h / MIC,67.79
same,MIC,"[13]; Phialophora verrucosa, 100% growth inhibition, read-out: MIC",5 µM
same,Selectivity Index (SI),[14]; CC50 Vero 24 h / MIC,135.59
same,MIC,"[14]; Cladophialophora carrionii, 100% growth inhibition, read-out: MIC",2.5 µM
same,Selectivity Index (SI),[15]; CC50 Vero 24 h / MIC,135.59
same,MIC,"[15]; Fonsecaea monophora, 100% growth inhibition, read-out: MIC",2.5 µM
same,Selectivity Index (SI),[16]; CC50 Vero 24 h / MIC,67.79
same,MIC,"[16]; Fonsecaea nubica, 100% growth inhibition, read-out: MIC",5 µM
same,Selectivity Index (SI),[17]; CC50 Vero 24 h / MIC,16.94
same,MIC,"[17]; Exophiala dermatitidis, ATCC28869, 100% growth inhibition, read-out: MIC",20 µM

# From article PMC10381309 (Journal of Fungi, 2023)
